The source of these data is the supplement of paper PMC10307832.

Assay in all cases: relative viability (nuclei count vs DMSO), 5 days (fraction); higher = more cells survive
Compound in experiment [1]: COc1ncc(-c2ccc3nccc(-c4ccnnc4)c3c2)cc1NS(=O)(=O)c1ccc(F)cc1F [Omipalisib] + CC(=O)c1c(C)c2cnc(Nc3ccc(N4CCNCC4)cn3)nc2n(C2CCCC2)c1=O [Palbociclib] (partner 0.5 µM)
A digest of the protocol: (§1)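 Medians of duplicate plates are given as relative viability. That measure is the nuclei count in treated wells divided by the count in vehicle wells. Counts were taken on 4× images of lung cancer cell lines in 1536-well plates, 5 days after pin-tool dosing the day after seeding with one drug alone or a fixed anchor-drug dose plus five library-drug doses (not always all listed) in √10 steps.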

Compound in experiment [2]: COc1ncc(-c2ccc3nccc(-c4ccnnc4)c3c2)cc1NS(=O)(=O)c1ccc(F)cc1F [Omipalisib] + COc1cc2c(Oc3ccc(NC(=O)C4(C(=O)Nc5ccc(F)cc5)CC4)cc3F)ccnc2cc1OCCCN1CCOCC1 [Foretinib] (partner 0.25 µM)
A digest of the protocol: as §1

Compound in experiment [3]: COc1ncc(-c2ccc3nccc(-c4ccnnc4)c3c2)cc1NS(=O)(=O)c1ccc(F)cc1F [Omipalisib] + COc1cccc2cc(-c3nc([C@H]4CC[C@H](C(=O)O)CC4)n4ncnc(N)c34)[nH]c12 [OSI-027] (partner 0.5 µM)
A digest of the protocol:
as §1

Compound in experiment [4]: COc1ncc(-c2ccc3nccc(-c4ccnnc4)c3c2)cc1NS(=O)(=O)c1ccc(F)cc1F [Omipalisib] + C[C@@H](Oc1cc(-c2cnn(C3CCNCC3)c2)cnc1N)c1c(Cl)ccc(F)c1Cl [Crizotinib] (partner 1 µM)
A digest of the protocol: as §1

Compound in experiment [5]: COc1ncc(-c2ccc3nccc(-c4ccnnc4)c3c2)cc1NS(=O)(=O)c1ccc(F)cc1F [Omipalisib] + Cc1nc(Nc2ncc(C(=O)Nc3c(C)cccc3Cl)s2)cc(N2CCN(CCO)CC2)n1 [Dasatinib] (partner 0.075 µM)
A digest of the protocol:
as §1

Compound in experiment [6]: COc1ncc(-c2ccc3nccc(-c4ccnnc4)c3c2)cc1NS(=O)(=O)c1ccc(F)cc1F [Omipalisib] + Nc1nc2[nH]cc(CCc3ccc(C(=O)N[C@@H](CCC(=O)O)C(=O)O)cc3)c2c(=O)[nH]1 [Pemetrexed] (partner 0.2 µM)
A digest of the protocol: as §1

As for NCI-H441, the relative viability in experiment [1] (first compound 0.0003 µM) is 0.213; in experiment [1] (first compound 0.003 µM) it was 0.19; in experiment [1] (first compound 0.03 µM) it was 0.139; in experiment [2] (first compound 0.0003 µM), 0.761; in experiment [2] (first compound 0.003 µM), 0.657; in experiment [2] (first compound 0.03 µM) it was 0.434. Also, the relative viability worked out at 0.642 in experiment [3] (first compound 0.0003 µM); 0.35 in experiment [3] (first compound 0.003 µM); 0.26 in experiment [3] (first compound 0.03 µM); 0.462 in experiment [4] (first compound 0.0003 µM); 0.32 in experiment [4] (first compound 0.003 µM); 0.367 in experiment [4] (first compound 0.03 µM). Also, the relative viability in experiment [5] (first compound 0.0003 µM) was 0.494; in experiment [5] (first compound 0.003 µM), 0.37; in experiment [5] (first compound 0.03 µM), 0.339; in experiment [6] (first compound 0.0003 µM), 0.294; in experiment [6] (first compound 0.003 µM), 0.283; in experiment [6] (first compound 0.03 µM) it was 0.237.

For SW 900, the relative viability in experiment [1] (first compound 0.0003 µM) was determined as 0.522; in experiment [1] (first compound 0.003 µM) it was 0.444; in experiment [1] (first compound 0.03 µM) it was 0.278; in experiment [2] (first compound 0.0003 µM), 0.888; in experiment [2] (first compound 0.003 µM), 0.691; in experiment [2] (first compound 0.03 µM), 0.622. The relative viability in experiment [3] (first compound 0.0003 µM) was 0.573; in experiment [3] (first compound 0.003 µM) it was 0.495; in experiment [3] (first compound 0.03 µM), 0.306; in experiment [5] (first compound 0.0003 µM) it was 0.568; in experiment [5] (first compound 0.003 µM), 0.293; in experiment [5] (first compound 0.03 µM), 0.211. For the same cell line, the relative viability worked out at 0.508 in experiment [6] (first compound 0.0003 µM), 0.456 in experiment [6] (first compound 0.003 µM) and 0.487 in experiment [6] (first compound 0.03 µM).

Take PC-3 [JPC-3]: the relative viability in experiment [1] (first compound 0.0003 µM) was 0.547; in experiment [1] (first compound 0.003 µM) it was 0.527; in experiment [1] (first compound 0.03 µM) it was 0.534; in experiment [2] (first compound 0.0003 µM) it was 1.03; in experiment [2] (first compound 0.003 µM), 1.03; in experiment [2] (first compound 0.03 µM) it was 0.856. Moreover, the relative viability amounted to 0.735 in experiment [3] (first compound 0.0003 µM); 0.569 in experiment [3] (first compound 0.003 µM); 0.551 in experiment [3] (first compound 0.03 µM); 0.922 in experiment [4] (first compound 0.0003 µM); 1 in experiment [4] (first compound 0.003 µM); 0.889 in experiment [4] (first compound 0.03 µM). Moreover, the relative viability stood at 0.942 in experiment [5] (first compound 0.0003 µM); 0.917 in experiment [5] (first compound 0.003 µM); 0.726 in experiment [5] (first compound 0.03 µM); 1.03 in experiment [6] (first compound 0.0003 µM); 1.12 in experiment [6] (first compound 0.003 µM); 0.89 in experiment [6] (first compound 0.03 µM).

Take NCI-H2342: the relative viability was determined as 0.459 in experiment [1] (first compound 0.0003 µM); 0.442 in experiment [1] (first compound 0.003 µM); 0.406 in experiment [1] (first compound 0.03 µM); 0.816 in experiment [2] (first compound 0.0003 µM); 0.688 in experiment [2] (first compound 0.003 µM); 0.453 in experiment [2] (first compound 0.03 µM). The relative viability in experiment [3] (first compound 0.0003 µM) is 0.569; in experiment [3] (first compound 0.003 µM), 0.516; in experiment [3] (first compound 0.03 µM), 0.467; in experiment [5] (first compound 0.0003 µM), 0.298; in experiment [5] (first compound 0.003 µM), 0.294; in experiment [5] (first compound 0.03 µM), 0.243. Also, the relative viability in experiment [6] (first compound 0.0003 µM) was found to be 0.69; in experiment [6] (first compound 0.003 µM), 0.568; in experiment [6] (first compound 0.03 µM), 0.451.

As for NCI-H1437, the relative viability in experiment [1] (first compound 0.0003 µM) is 0.363; in experiment [1] (first compound 0.003 µM) it was 0.307; in experiment [1] (first compound 0.03 µM), 0.218; in experiment [2] (first compound 0.0003 µM) it was 1.26; in experiment [2] (first compound 0.003 µM) it was 1.35; in experiment [2] (first compound 0.03 µM), 0.918. For the same cell line, the relative viability in experiment [3] (first compound 0.0003 µM) amounted to 0.854; in experiment [3] (first compound 0.003 µM), 0.639; in experiment [3] (first compound 0.03 µM), 0.323; in experiment [4] (first compound 0.0003 µM) it was 0.864; in experiment [4] (first compound 0.003 µM), 0.894; in experiment [4] (first compound 0.03 µM) it was 0.702. Also, the relative viability in experiment [5] (first compound 0.0003 µM) turned out to be 0.411; in experiment [5] (first compound 0.003 µM), 0.323; in experiment [5] (first compound 0.03 µM), 0.202; in experiment [6] (first compound 0.0003 µM), 0.276; in experiment [6] (first compound 0.003 µM) it was 0.298; in experiment [6] (first compound 0.03 µM) it was 0.27.

For HCC-827, the relative viability in experiment [1] (first compound 0.0003 µM) is 0.471; in experiment [1] (first compound 0.003 µM), 0.381; in experiment [1] (first compound 0.03 µM), 0.266; in experiment [2] (first compound 0.0003 µM), 1.03; in experiment [2] (first compound 0.003 µM), 0.803; in experiment [2] (first compound 0.03 µM), 0.288. Besides, the relative viability in experiment [3] (first compound 0.0003 µM) came out at 0.769; in experiment [3] (first compound 0.003 µM), 0.531; in experiment [3] (first compound 0.03 µM), 0.254; in experiment [4] (first compound 0.0003 µM) it was 0.952; in experiment [4] (first compound 0.003 µM), 0.885; in experiment [4] (first compound 0.03 µM) it was 0.373. The relative viability in experiment [5] (first compound 0.0003 µM) is 0.194; in experiment [5] (first compound 0.003 µM), 0.233; in experiment [5] (first compound 0.03 µM) it was 0.147; in experiment [6] (first compound 0.0003 µM), 0.242; in experiment [6] (first compound 0.003 µM), 0.282; in experiment [6] (first compound 0.03 µM), 0.191.

As to HCC-44, the relative viability in experiment [1] (first compound 0.0003 µM) amounted to 0.962; in experiment [1] (first compound 0.003 µM), 0.962; in experiment [1] (first compound 0.03 µM), 0.879; in experiment [3] (first compound 0.0003 µM), 0.524; in experiment [3] (first compound 0.003 µM), 0.344; in experiment [3] (first compound 0.03 µM), 0.338. For the same cell line, the relative viability in experiment [4] (first compound 0.0003 µM) came out at 0.783; in experiment [4] (first compound 0.003 µM), 0.74; in experiment [4] (first compound 0.03 µM), 0.308; in experiment [6] (first compound 0.0003 µM), 0.68; in experiment [6] (first compound 0.003 µM), 0.682; in experiment [6] (first compound 0.03 µM) it was 0.694.

With NCI-H2126, the relative viability was determined as 0.344 in experiment [1] (first compound 0.0003 µM); 0.344 in experiment [1] (first compound 0.003 µM); 0.317 in experiment [1] (first compound 0.03 µM); 1.01 in experiment [2] (first compound 0.0003 µM); 0.718 in experiment [2] (first compound 0.003 µM); 0.342 in experiment [2] (first compound 0.03 µM). Besides, the relative viability in experiment [3] (first compound 0.0003 µM) is 0.71; in experiment [3] (first compound 0.003 µM), 0.488; in experiment [3] (first compound 0.03 µM) it was 0.411; in experiment [4] (first compound 0.0003 µM) it was 0.965; in experiment [4] (first compound 0.003 µM) it was 0.866; in experiment [4] (first compound 0.03 µM) it was 0.559. The relative viability in experiment [5] (first compound 0.0003 µM) amounted to 0.545; in experiment [5] (first compound 0.003 µM), 0.366; in experiment [5] (first compound 0.03 µM), 0.301; in experiment [6] (first compound 0.0003 µM) it was 0.652; in experiment [6] (first compound 0.003 µM) it was 0.537; in experiment [6] (first compound 0.03 µM), 0.38.
